# Laboratory results reported in patent publication US12453757B2, “Method for ameliorating autism symptoms by pharmacological activation of the neurotensin receptor 1 (NTSR1)” (New York Institute of Technology, priority 2022, dated 2025).
# Structures can show the parent of a compound that is named as a salt. Numbered stars: 1 amine (or outer) side, 2 acyl side, 3 side chain; on linkers, the order of the positions; unused ones are H or OH. Square brackets hold non-standard residues; d marks the D form. Peptide text beside a SMILES is read from it. X1 = NCCCC[C@H](N)CN([C@@H](CCCCN)C(=O)[*:2])[*:1]; Tle = CC(C)(C)[C@H](N)C(=O)O
# Tests used:
# [1] = test system: SHANK3 haploinsufficiency mouse model of autism; test: Odor detection in novel background odors (go/no-go behavioral task), SHANK3 haploinsufficiency mice; assay type: in vivo; settings: 6 mice, 0.13 mg/kg subcutaneous in saline, 30 minutes before test, chance 0.5, optimal 1
# Procedure: (§1) FIG. 1: Behavioral task used to test the effect of PD149163. Water-deprived, head-fixed mice were trained to identify target odors in the presence of background odors. […] If the target was the “go target” odors and the mouse licked, the mouse was rewarded with a small amount water. If the mouse wrongly licked the “no-go target” odors, no water was delivered and it was given a time out. After 10-13 days, mice performance exceeded 80%. The mice were then tested with the test set, that consisted of the same target odors but with novel background odors.
# (§2) In order to test the effect of NTSR1 agonists, a novel behavioral task was used developed in the lab. In this task (see FIG. 1), water-deprived, head-fixed mice were trained to identify target odors in the presence of background odors. If the mouse responded to the go target odors, it was rewarded with water. If the mouse wrongly responded to the no-go target odors, no water was delivered and it experienced a time out. Chance performance was 0.5 and optimal performance was 1. After mice mastered this task (performance>0.8) with a set of known background odors after ˜10 days of training, the animals were tested with the same targets but in the presence of novel background odors. The performance of WT mice with novel background odors is above chance (0.74, 95% CI: 0.68-0.80, 3 WT mice). […]
# [2] = test system: CNTNAP2 knockout mouse model of autism; test: Odor detection in novel background odors (go/no-go behavioral task), CNTNAP2 knockout mice; assay type: in vivo
# Procedure: as §1
# In order to test the effect of NTSR1 agonists, a novel behavioral task was used developed in the lab. In this task (see FIG. 1), water-deprived, head-fixed mice were trained to identify target odors in the presence of background odors. If the mouse responded to the go target odors, it was rewarded with water. If the mouse wrongly responded to the no-go target odors, no water was delivered and it experienced a time out. Chance performance was 0.5 and optimal performance was 1. After mice mastered this task (performance>0.8) with a set of known background odors after ˜10 days of training, the animals were tested with the same targets but in the presence of novel background odors. The performance of WT mice with novel background odors is above chance (0.74, 95% CI: 0.68-0.80, 3 WT mice).
# This novel behavioral task was used to test the effects of the neurotensin receptor 1 agonists. The performances of both mouse models of autism without PD149163 (a peptide neurotensin receptor 1 agonist) were lower than the performance of the WT mice (SHANK3 haploinsufficiency: 0.62, 95% CI: 0.59-0.66, 6 mice, each mouse tested on 4 different days, CNTNAP2 knockout: 0.61, 95% CI: 0.56-0.65, 4 mice) (see FIG. 2). […] This dosage reversed the recognition deficit in novel environments shown by both mouse models of autism, with performance that matched the performance of the WT mice (SHANK3 haploinsufficiency: 0.81, 95% CI: 0.77-0.85, 6 mice, each mouse tested on 2 different days, CNTNAP2 knockout: 0.82, 95% CI: 0.77-0.86, 4 mice). […]
# [3] = test system: SHANK3 and CNTNAP2 mouse models of autism; test: Odor detection in novel background odors, both mouse models of autism pooled (dose response, duration); assay type: in vivo
# Procedure: FIG. 3: Performance of odor detection in novel environments as a function of the dose of PD149163 injected subcutaneously using saline as vehicle. The bars represent the average performance for all 10 tested mice (four CNTNAP2 mice and six SHANK3 mice) at the three doses tested. The error bars are the 95% CI. The lines represent the performance for individual mice. The p values were calculated using paired t-test to compare the average performances of the 10 tested mice using the 0.13 mg/kg against the 0.065 mg/kg dose and the no drug condition.
# as §2
# mice = test: Lethargy side effect after injection; assay type: in vivo, mouse
smiles,measurement,setting,value
"CCOC(=O)[C@H](CC(C)C)NC(=O)[C@@H](NC(=O)[C@H](Cc1c[nH]c2ccccc12)NC(=O)[C@@H]1CCCN1C(=O)[C@H](CCCCN)NC[C@@H](N)CCCCN)C(C)(C)C [PD149163, N2-[(2S)-2,6-Diaminohexyl]-L-lysyl-L-prolyl-L-tryptophyl-3-methyl-L-valyl-L-Leucine ethyl ester tetrahydrochloride hydrate] (H-[X1]PW[Tle]L-OEt)",Performance of odor detection with novel background odors,[1],0.81
same,Performance of odor detection with novel background odors,"[2]; CNTNAP2 knockout male mice (2 mice, 2 sessions), 0.39 mg/kg in PEG400 (80 μg/ml), two subcutaneous injections 1 hour and 30 minutes before task",0.76
same,Performance of odor detection with novel background odors,"[2]; CNTNAP2 knockout male mice (2 mice, 5 sessions), 0.13 mg/kg subcutaneous in saline, 30 minutes before test",0.54
same,Performance of odor detection with novel background odors,"[2]; CNTNAP2 knockout, 4 mice, 0.13 mg/kg subcutaneous in saline, 30 minutes before test, chance 0.5, optimal 1",0.82
same,Duration of drug effects on performance,"[3]; 0.13 mg/kg subcutaneous in saline, returned to baseline the next day",less than 24 hours
same,Improvement of behavior (odor detection performance),"[3]; half dose 0.065 mg/kg subcutaneous, saline as vehicle",did not produce an improvement
same,Lethargy,"mice; 0.26 mg/Kg subcutaneous, PEG400 as vehicle, 2 SHANK3 mice",no lethargy
same,Lethargy,"mice; 0.26 mg/kg subcutaneous, saline as vehicle",produced lethargy
same,Lethargy,mice; therapeutic dose by intraperitoneal injection instead of subcutaneous,resulted also in lethargy
